The record followed here is US20250333398A1, “MONOARYL AND HETARYL SUBSTITUTED INDAZOLES AND BENZIMIDAZOLES AS STING ANTAGONISTS AND THE USE THEREOF AS MEDICAMENT” (Boehringer Ingelheim International GmbH, priority 2024, published 2025).

As usually defined, the IC50 is the concentration needed to halve the response being measured.

Structures are written as SMILES.

The first experiment concerns T1, STING.
T1 construct: from tissue; host or cells: human whole blood from healthy donors
Kind of experiment: Human whole blood assay (HWBA), cGAMP-stimulated IFNα2α production. It counts as cell-based. The conditions noted are these: human whole blood stimulated by cGAMP. The method, then:
For the detection of STING inhibition in physiological environment human whole blood was stimulated by the cyclic dinucleotide cGAMP. Pathway activity was monitored by measuring the IFNα2α production.
Assay method: Compounds were delivered as 10 mM DMSO solution and serial diluted and transferred to the 96-well Cell culture Plate (Corning #3595), prefilled with 20 μl OptiMEM (Gibco #11058-021) in each well, using an Echo acoustic dispenser. Typically, 8 concentrations were used with the highest concentration at 10 μM in the final assay volume followed by ^˜1:5 dilution steps. DMSO concentration was set to 0.1% in the final assay volume. The 96 well assay plate contained 9 test compounds, a reference compound and DMSO in control wells.
Collection of human whole blood from 3 or more healthy donors (male or female, no medication for 7 days, exception contraceptive and thyroxine) as Na-citrate blood (e.g. 3.8% in Monovettes from Sarstedt) is conducted in parallel. Whole blood was kept at room temperature for a maximum of 3 hours after collection until use in the assay.
160 μl of the whole blood samples were transferred to each well of the 96-well assay plates filled with compound/OptiMEM. All assay plates are prepared as duplicates with blood from different donors. Blood plates were kept at room temperature for 60 minutes and continuous shaking with 450 rpm, covered with the lid, but not sealed.
A 10× cGAMP assay solution was diluted from a 2 mM stock solution in 1×HBSS immediately before use at room temperature. 20 μl of the 10× cGAMP/HBSS were added to all compound and all high control wells, whereas HBSS only was added to all low control wells.
After covering assay plates with aera seals and the lid, blood plates were kept at room temperature for 30 minutes and continuous shaking with 450 rpm, followed by an overnight incubation of 22 h at 37° C. in the incubator, without shaking.
For the detection of IFNα-2α in human plasma, the biotinylated capture antibody (Antibody set IFNA2, Meso Scale Diagnostics #B21VH-3, including coating and capture antibody) was diluted 1:17.5 in Diluent 100 (Meso Scale Diagnostics #R50AA-4, according to the manufacturer. U-Plex MSD GOLD 96-well Small Spot Streptavidin SECTOR Plates (Meso Scale Diagnostics #L45SA-5) were coated with 25 μl diluted capture antibody. Coated plates were incubated for 60 min at room temperature under continuous shaking at 700 rpm. MSD IFNα-2α plates were washed three times with 150 μl wash buffer (1×HBSS, 0.05% Tween).
After blocking the plates with 100 μl block solution/well (1×HBSS with 0.2% Tween, 2% BSA) for 60 min at room temperature and continuous shaking at 700 rpm, plates were emptied as dry as possible by dumping just before continuing with the human plasma. Whole Blood assay plates were centrifuged at 1600 rpm for 10 minutes. 25 μl of supernatant was transferred with a pipetting robotics from each whole blood plate to the corresponding IFNα-2α plate. Plates were sealed with microplate seals and kept at room temperature again under continuous shaking at 700 rpm for two hours. Next MSD IFNα-2α plates were washed three times with 150 μl wash buffer (1×HBSS, 0.05% Tween), before adding 25 μl MSD SULFO-TAG IFNα-2α Antibody solution (1:100 diluted in Diluent 3 (Meso Scale Diagnostics #R50AP-2) to each well of the plates. Afterwards plates were sealed with microplate seals and kept at room temperature again under continuous shaking at 700 rpm for two hours. Finally, MSD IFNα-2α plates were washed three times with 150 μl wash buffer (1×HBSS, 0.05% Tween). 150 μl 2× Read buffer was added to each well and plates were immediately measured with the MSD Sector S600 Reader using the vendor barcode.
Data evaluation and calculation: For data evaluation and calculation, % control calculation of each well was based on the mean of high (cGAMP stimulated control) and mean of low (unstimulated control) controls by using the following formula: […]
`Cn1nc(-n2cc3c(-c4nc(-c5ccc(P(C)(C)=O)cc5OC(F)(F)F)n(C)c4C4CC4)cccc3n2)cc1C(F)F` [Example 2, 4-{5-cyclopropyl-2-[4-(dimethylphosphoryl)-2-(trifluoromethoxy)phenyl]-1-methyl-1H-imidazol-4-yl}-2-[5-(difluoromethyl)-1-methyl-1H-pyrazol-3-yl]-2H-indazole] yielded an IC50 of 210 nM.
Still for that read-out and setting: next, `COc1nn(C)cc1-n1cc2c(-c3nc(-c4ccc(C(=O)N(C)C)cc4OC(F)(F)F)n(C)c3C3CC3)cccc2n1` [Example 3, 4-{5-cyclopropyl-4-[2-(3-methoxy-1-methyl-1H-pyrazol-4-yl)-2H-indazol-4-yl]-1-methyl-1H-imidazol-2-yl}-N,N-dimethyl-3-(trifluoromethoxy)benzamide]: 2600 nM; `CCOc1nn(C)cc1-n1cc2c(-c3nc(-c4ccc(C(N)=O)cc4OC(F)(F)F)n(C)c3C3CC3)cccc2n1` [Example 4, 4-{5-cyclopropyl-4-[2-(3-ethoxy-1-methyl-1H-pyrazol-4-yl)-2H-indazol-4-yl]-1-methyl-1H-imidazol-2-yl}-3-(trifluoromethoxy)benzamide]: 95 nM.
Still for that read-out and setting: the value for `COc1nn(C2CC2)cc1-n1cc2c(-c3nc(-c4ccc(C(N)=O)cc4OCC(F)F)n(C)c3C3CC3)cccc2n1` [Example 6, 4-{5-cyclopropyl-4-[2-(1-cyclopropyl-3-methoxy-1H-pyrazol-4-yl)-2H-indazol-4-yl]-1-methyl-1H-imidazol-2-yl}-3-(2,2-difluoroethoxy)benzamide] was 58 nM; that for `CC[P@](C)(=O)c1ccc(-c2nc(-c3cccc4nn(-c5cc(C(F)F)n(C)n5)cc34)c(C3CC3)n2C)c(OC(F)(F)F)c1` [Example 7, 4-(5-cyclopropyl-2-{4-[(S)-ethyl(methyl)phosphoryl]-2-(trifluoromethoxy)phenyl}-1-methyl-1H-imidazol-4-yl)-2-[5-(difluoromethyl)-1-methyl-1H-pyrazol-3-yl]-2H-indazole] was 57 nM; that for `Cn1nc(-n2cc3c(-c4nc(-c5ccc(C(N)=O)cc5OC(F)(F)F)n(C)c4C4CC4)cccc3n2)cc1C(F)(F)F` [Example 8, 4-(5-cyclopropyl-1-methyl-4-{2-[1-methyl-5-(trifluoromethyl)-1H-pyrazol-3-yl]-2H-indazol-4-yl}-1H-imidazol-2-yl)-3-(trifluoromethoxy)benzamide] was 80 nM.
Still for that read-out and setting: the value for `COc1nn(C2CC2)cc1-n1cc2c(-c3nn(-c4ccc(P(C)(C)=O)cc4C)c(C)c3C(C)C)cccc2n1` [Example 9, 2-(1-cyclopropyl-3-methoxy-1H-pyrazol-4-yl)-4-{1-[4-(dimethylphosphoryl)-2-methylphenyl]-5-methyl-4-(propan-2-yl)-1H-pyrazol-3-yl}-2H-indazole] was 1500 nM; that for `COc1nn(CC(C)(C)O)cc1-n1cc2c(-c3nc(-c4ccc(C(N)=O)cc4OC(F)(F)F)n(C)c3C3CC3)cccc2n1` [Example 11, 4-(5-cyclopropyl-4-{2-[1-(2-hydroxy-2-methylpropyl)-3-methoxy-1H-pyrazol-4-yl]-2H-indazol-4-yl}-1-methyl-1H-imidazol-2-yl)-3-(trifluoromethoxy)benzamide] was 880 nM.
Turning to `COCc1cc(C(N)=O)ccc1-c1nc(-c2cccc3nn(-c4cn(C5CC5)nc4OC)cc23)c(C2CC2)n1C` [Example 12, 4-{5-cyclopropyl-4-[2-(1-cyclopropyl-3-methoxy-1H-pyrazol-4-yl)-2H-indazol-4-yl]-1-methyl-1H-imidazol-2-yl}-3-(methoxymethyl)benzamide], the IC50 turned out to be 840 nM.
Same read-out and setting: the value for `CC[P@@](C)(=O)c1ccc(-c2nc(-c3cccc4nn(-c5cn(C6CC6)nc5OC)cc34)c(C3CC3)n2C)c(OC(F)(F)F)c1` [Example 13, 4-(5-cyclopropyl-2-{4-[(R)-ethyl(methyl)phosphoryl]-2-(trifluoromethoxy)phenyl}-1-methyl-1H-imidazol-4-yl)-2-(1-cyclopropyl-3-methoxy-1H-pyrazol-4-yl)-2H-indazole] was 38 nM.
For `CC[P@](C)(=O)c1ccc(-c2nc(-c3cccc4nn(-c5cn(C6CC6)nc5OC)cc34)c(C3CC3)n2C)c(OC(F)(F)F)c1` [Example 14, 4-(5-cyclopropyl-2-{4-[(S)-ethyl(methyl)phosphoryl]-2-(trifluoromethoxy)phenyl}-1-methyl-1H-imidazol-4-yl)-2-(1-cyclopropyl-3-methoxy-1H-pyrazol-4-yl)-2H-indazole], the IC50 came out at 11 nM.
On the same count and under the same terms, the value for `COc1nn(C2CC2)cc1-n1cc2c(-c3nc(-c4ccc(C(=O)N(C)C)cc4OC(F)(F)F)n(C)c3C3CC3)cccc2n1` [Example 15, 4-{5-cyclopropyl-4-[2-(1-cyclopropyl-3-methoxy-1H-pyrazol-4-yl)-2H-indazol-4-yl]-1-methyl-1H-imidazol-2-yl}-N,N-dimethyl-3-(trifluoromethoxy)benzamide] was 110 nM; that for `COc1nn(C2CC2)cc1-n1cc2c(-c3nc(-c4ccc(C(N)=O)cc4OC(F)(F)F)n(C)c3C3CC3)cccc2n1` [Example 16, 4-{5-cyclopropyl-4-[2-(1-cyclopropyl-3-methoxy-1H-pyrazol-4-yl)-2H-indazol-4-yl]-1-methyl-1H-imidazol-2-yl}-3-(trifluoromethoxy)benzamide] was 35 nM; that for `CCP(=O)(CC)c1ccc(-c2nc(-c3cccc4nn(-c5cc(C(F)(F)F)n(C)n5)cc34)c(C3CC3)n2C)c(OC(F)(F)F)c1` [Example 17, 4-{5-cyclopropyl-2-[4-(diethylphosphoryl)-2-(trifluoromethoxy)phenyl]-1-methyl-1H-imidazol-4-yl}-2-[1-methyl-5-(trifluoromethyl)-1H-pyrazol-3-yl]-2H-indazole] was 89 nM.
On the same count and under the same terms, next, `CC[P@](C)(=O)c1ccc(-c2nc(-c3cccc4[nH]c(-c5cc(C(F)(F)F)n(C)n5)nc34)c(C3CC3)n2C)c(OC(F)(F)F)c1` [Example 18, 4-(5-cyclopropyl-2-{4-[(S)-ethyl(methyl)phosphoryl]-2-(trifluoromethoxy)phenyl}-1-methyl-1H-imidazol-4-yl)-2-[1-methyl-5-(trifluoromethyl)-1H-pyrazol-3-yl]-1H-1,3-benzodiazole]: 87 nM; `CC[P@](C)(=O)c1ccc(-c2nc(-c3cccc4nn(-c5cc(C6CC6)n(C)n5)cc34)c(C3CC3)n2C)c(OC(F)(F)F)c1` [Example 19, 2-(5-cyclopropyl-1-methyl-1H-pyrazol-3-yl)-4-(5-cyclopropyl-2-{4-[(S)-ethyl(methyl)phosphoryl]-2-(trifluoromethoxy)phenyl}-1-methyl-1H-imidazol-4-yl)-2H-indazole]: 140 nM.

A further experiment concerns STING. The experiment in a line: IP10 production in human dermal microvascular endothelial cells (MVEC) after double-stranded DNA stimulation. The conditions noted are these: IP10 production after dsDNA stimulation; rounded average of multiple experiments; read-out: Inhibition of Human microvascular endothelial cells (IC50 nM). Format: cell-based. The source says: Interferon gamma-induced protein 10 (IP-10) also known as C—X—C motif chemokine ligand 10 (CXCL10) is produced as one of the responses of the presence of double-stranded DNA in the cytoplasm and resulting STING activity. In some diseases, imbalanced STING activation can result to damage in the endothelium, for example in SAVI patients (Liu Yet al. Activated STING in a vascular and pulmonary syndrome. N Engl J Med. 2014 Aug. 7; 371(6):507-518. doi: 10.1056/NEJMoa1312625). To test the efficacy of the inventive STING inhibitors, experiments in human microvascular endothelial cells (HMVEC) are performed with the inventive compounds. Dermal HMVEC are available from Lonza, US. They are cultured in 96 well plates according to the manufacturer's instructions. Using typical protocols, the cells are serum starved and then treated with the compound for 1 hour. The cells are then treated with 400 ng/mL of dsDNA as a complex with Lipofectamine 3000 (from Thermo Fisher Scientific Inc., Waltham, MA, USA) and incubated for 6 hours. The supernatants are collected and assayed for IP10 production.
Detection of IP10 is done using the U-PLEX HUMAN IP-10 ASSAY from Meso Scale Diagnostics (1601 Research Boulevard, Rockville, Maryland 20850-3173, USA) according to manufacturer's protocols.
As for `CC[P@](C)(=O)c1ccc(-c2nc(-c3cccc4nn(-c5cc(C(F)F)n(C)n5)cc34)c(C3CC3)n2C)c(OC(F)(F)F)c1` [Example 7, 4-(5-cyclopropyl-2-{4-[(S)-ethyl(methyl)phosphoryl]-2-(trifluoromethoxy)phenyl}-1-methyl-1H-imidazol-4-yl)-2-[5-(difluoromethyl)-1-methyl-1H-pyrazol-3-yl]-2H-indazole], the IC50 came to 21 nM.
